The text below walks through data of paper PMC8201255, “A Combined Experimental and Theoretical Study of Nitrofuran Antibiotics: Crystal Structures, DFT Computations, Sublimation and Solution Thermodynamics” (Molecules, 2021).

Structures are written as SMILES. Like-named read-outs stand apart in the source and are kept apart here.

For series [1] the following is noted: 298.15 K, cited from earlier work.
For series [2] the following is noted: for solubility X2·10^5: p = 0.1 MPa, value is X2·10^5. How it is done: All the solubility experiments were carried out using the analytical isothermal shake-flask method. […] In brief, an excess amount of API was added to triplicate Pyrex glass tubes containing the respective dissolution media. […] The concentrations of the dissolved APIs were measured spectrophotometrically using a Cary 50 UV-vis spectrophotometer (Varian, Australia) with an accuracy of 2–4%.
Conversion of molarity to mole fraction concentration scale was produced using Equation (10):(10) X2=M2S2/S2(M2−M1)+1000ρ where S2 is molarity of API (mol·L^−1), M1 and M2 are the molar masses of solvent and solute, respectively, and ρ (g·cm^−3) is the density of the pure solvents. The mole fraction solubilities for buffer solutions were calculated taking into account the buffer compositions. Densities of buffer solutions (pH 2.0 and 7.4) were measured and published early.
The results are stated as the average of at least three replicated experiments.

For series [3] the following is noted: for TΔSsol0 / ΔGsol0 / ΔHsol0 / ΔSsol0: dissolution; for ςHsolv: relative fraction of solvation enthalpy; for ςTSsolv: relative fraction of solvation entropy; for TΔSsolv0 / ΔGsolv0 / ΔHsolv0 / ΔSsolv0: solvation.
For series [4] the following is noted: ref Koradia et al. [34]; cited from earlier work.
The procedure of series [5]:
Details of the technique are given in the literature. In brief: a flow of the inert gas (N2) through the tube transported the saturated vapor of the sample under investigation at a constant temperature and flow rate. The sample vapor is completely condensed at some point downstream. The sample vapor pressure at this temperature was calculated from the sublimated sample amount and the volume of the inert gas used. The mass of sublimated substance was determined using a spectrophotometer method by means of spectrophotometer Cary-50 (Varian, Australia).
The equipment was calibrated with benzoic acid, as specified in earlier work of our research group.
Absolute vapor pressures for compounds are usually approximated by the Clarke–Glew equation [38].
The value of the sublimation enthalpy is calculated by the Clausius–Clayperon equation:(7) ΔcrgHm0(T)=−R⋅(∂(lnp)/∂(1/T))
The sublimation entropy at a given temperature T is calculated by the following relation:(8) ΔcrgSm0(T)=(ΔcrgHm0(T)−ΔcrgGm0(T))/T with ΔcrgGm0(T)=−RTln(p/p0) , where p0 is the standard pressure (1 × 10^5 Pa).
For experimental reasons, the sublimation data are obtained at high temperatures. However, in comparison with the effusion methods, the temperatures are much lower, which makes extrapolation to room conditions easier.
Van der Waals molecular volumes ( V^vdw ) were estimated by the program GEPOL [50] using atom radiuses proposed by Kitaigorodskii. The free molecular volume in the crystal lattice was calculated on the basis of the single crystal X-ray diffraction data:(14) V^free=V^mol−V^vdw where V^mol is the molecular volume in crystal lattice, which is estimated by the equation:(15) V^mol=V^cell/Z where V^cell is the unit cell volume and Z is the number of molecules in the unit cell.
The source holds these as a separate data set.

[6] abbreviates: buffer pH 2.0, 298.15 K (Table 5).
[7] abbreviates: buffer pH 7.4, 298.15 K (Table 5).

With `O=C1NCCN1` [2-imadazolidinone], in series [1] (ref [5]), the “Δgcr Hm0 (298.15)” value is 20 kcal/mol and the “ΔgcrGm0 (298.15)” value was 10.2 kcal/mol.
For the molecule `O.O=C1CN(/N=C/c2ccc([N+](=O)[O-])o2)C(=O)N1` [[NFT + H2O], nitrofurantoin monohydrate], the “difference between equilibrium solubility of the monohydrate and solubility of anhydrous NFT” value in series [2] (313.15 K) is given as not above 15%. The “X2 (solubility)” value in series [2] (setting [6]) is 0.73·10^5 mol.frac; in series [2] (setting [7]) it was 1.98·10^5 mol.frac. Also, the “solubility X2·10^5” value is 0.73 mol. frac in series [2] (buffer pH 2.0, 298.15 K); 1.07 mol. frac in series [2] (buffer pH 2.0, 303.15 K); 1.43 mol. frac in series [2] (buffer pH 2.0, 308.15 K); 1.96 mol. frac in series [2] (buffer pH 2.0, 313.15 K); 2.34 mol. frac in series [2] (buffer pH 7.4, 303.15 K); 3.83 mol. frac in series [2] (buffer pH 7.4, 308.15 K). In series [2] (buffer pH 7.4, 313.15 K), the “solubility X2·10^5” value is given as 5.90 mol. frac. Besides, the TΔSsol0 stood at 5.04 kcal/mol in series [3] (buffer pH 2.0, 298.15 K) and 10.6 kcal/mol in series [3] (buffer pH 7.4, 298.15 K). In addition, the ΔGsol0 in series [3] (buffer pH 2.0, 298.15 K) was found to be 7 kcal/mol; in series [3] (buffer pH 7.4, 298.15 K), 6.41 kcal/mol. The ΔHsol0 in series [3] (buffer pH 2.0, 298.15 K) stood at 12.1 ± 0.406 kcal/mol; in series [3] (buffer pH 7.4, 298.15 K), 17.2 ± 0.287 kcal/mol. The ΔSsol0 in series [3] (buffer pH 2.0, 298.15 K) was 70.9 ± 2.6 J·K^−1·mol^−1; in series [3] (buffer pH 7.4, 298.15 K), 148.5 ± 2.0 J·K^−1·mol^−1. Also, the “ΔHw, vaporization enthalpy of water from the crystal” value (from DSC and TG, Equation (4)) turned out to be 14.4 kcal/mol. For the setting “thermodynamic cycle: sublimation enthalpy of NFT + ΔHw”, the “sublimation enthalpy computed using Equation (5)” value is 47.85 kcal/mol. The “activation energy of dehydration process” value in series [4] was 46.8 to 47.1 kcal/mol.
On to `O=Cc1ccc(-c2ccc([N+](=O)[O-])cc2)o1` [5-(4-nitrophenyl)-furan-2-carbaldehyde], for which, in series [1] (ref [8]), the “Δgcr Hm0 (298.15)” value was 32.48 kcal/mol and the “ΔgcrGm0 (298.15)” value was 15.6 kcal/mol.
As for `O=C1CCC(=O)N1` [Succinimide], in series [1] (ref [6]), the “Δgcr Hm0 (298.15)” value was 20 kcal/mol and the “ΔgcrGm0 (298.15)” value was 8.77 kcal/mol.
As to `O=C1CNC(=S)N1` [2-Thiohydantoin], in series [1] (ref [7]), the “Δgcr Hm0 (298.15)” value is 28.47 kcal/mol and the “ΔgcrGm0 (298.15)” value is 14.4 kcal/mol.
Turning to `O=C1CNC(=O)N1` [2,4-Imidazolidinedione], in series [1] (ref [7]), the “Δgcr Hm0 (298.15)” value is 27.8 kcal/mol and the “ΔgcrGm0 (298.15)” value is 13.8 kcal/mol.
With `O=C1CN(/N=C/c2ccc([N+](=O)[O-])o2)C(=O)N1` [NFT, nitrofurantoin], the “X2 (solubility)” value in series [2] (1-octanol, 298.15 K (Table 5)) is listed as 3.61·10^5 mol.frac; in series [2] (setting [6]), 1.49·10^5 mol.frac; in series [2] (setting [7]), 3.28·10^5 mol.frac. In addition, the “solubility X2·10^5” value in series [2] (1-octanol, 298.15 K) was found to be 3.61 mol. frac; in series [2] (1-octanol, 303.15 K), 4.97 mol. frac; in series [2] (1-octanol, 308.15 K), 6.53 mol. frac; in series [2] (1-octanol, 313.15 K), 8.26 mol. frac; in series [2] (buffer pH 2.0, 298.15 K), 1.49 mol. frac; in series [2] (buffer pH 2.0, 303.15 K), 1.82 mol. frac. Also, the “solubility X2·10^5” value in series [2] (buffer pH 2.0, 308.15 K) is 2.26 mol. frac; in series [2] (buffer pH 2.0, 313.15 K), 2.46 mol. frac; in series [2] (buffer pH 7.4, 298.15 K) it was 3.28 mol. frac; in series [2] (buffer pH 7.4, 303.15 K), 4.33 mol. frac; in series [2] (buffer pH 7.4, 308.15 K), 5.51 mol. frac; in series [2] (buffer pH 7.4, 313.15 K) it was 6.72 mol. frac. The “298.15⋅ΔcrgSm0(298.15K)” value in series [5] (298.15 K) was found to be 14.7 kcal/mol. The “ΔcrgGm0(298.15), sublimation Gibbs energy” value in series [5] (298.15 K) stood at 20.4 kcal/mol. Moreover, the “ΔcrgHm0(298.15K), sublimation enthalpy” value in series [5] (298.15 K) was 35.01 ± 0.17 kcal/mol. Further, the “ΔcrgSm0(298.15K), sublimation entropy” value in series [5] (298.15 K) is recorded as 205.5 ± 2.8 J·mol^−1·K^−1. Also, the “ΔcrgHm0(T), sublimation enthalpy” value in series [5] (at experimental temperature T) was 33.44 ± 0.17 kcal/mol. Moreover, the ςH in series [5] (enthalpy term of sublimation, 298.15 K) was found to be 70.5%. In addition, in series [5] (entropy term of sublimation, 298.15 K), the ςTS is on record as 29.5%. Also, in series [5] (extrapolated to 298.15 K), the “p(298.15K), saturated vapor pressure” value is given as 1.19·10^−10 Pa. Further, the “β = V^free/V^vdw” value in series [5] (free volume in the crystal lattice over van der Waals volume) is 36.3%. In addition, the TΔSsol0 in series [3] (1-octanol, 298.15 K) was 4.18 kcal/mol; in series [3] (buffer pH 2.0, 298.15 K), -0.22 kcal/mol; in series [3] (buffer pH 7.4, 298.15 K), 2.84 kcal/mol. Further, the ΔGsol0 in series [3] (1-octanol, 298.15 K) stood at 6.07 kcal/mol; in series [3] (buffer pH 2.0, 298.15 K), 6.57 kcal/mol; in series [3] (buffer pH 7.4, 298.15 K), 6.12 kcal/mol. In addition, the ΔHsol0 in series [3] (1-octanol, 298.15 K) is 10.2 ± 0.406 kcal/mol; in series [3] (buffer pH 2.0, 298.15 K), 6.36 ± 0.669 kcal/mol; in series [3] (buffer pH 7.4, 298.15 K), 8.96 ± 0.454 kcal/mol. Further, the ΔSsol0 in series [3] (1-octanol, 298.15 K) is listed as 58.5 ± 2.5 J·K^−1·mol^−1; in series [3] (buffer pH 2.0, 298.15 K), −3.1 ± 3.7 J·K^−1·mol^−1; in series [3] (buffer pH 7.4, 298.15 K), 39.9 ± 2.7 J·K^−1·mol^−1. In addition, the ςHsolv is listed as 70.3% in series [3] (1-octanol, 298.15 K); 65.8% in series [3] (buffer pH 2.0, 298.15 K); 68.8% in series [3] (buffer pH 7.4, 298.15 K). For the same molecule, the ςTSsolv is listed as 29.7% in series [3] (1-octanol, 298.15 K); 34.2% in series [3] (buffer pH 2.0, 298.15 K); 31.2% in series [3] (buffer pH 7.4, 298.15 K). For the same molecule, the TΔSsolv0 is -10.5 kcal/mol in series [3] (1-octanol, 298.15 K); -14.9 kcal/mol in series [3] (buffer pH 2.0, 298.15 K); -11.8 kcal/mol in series [3] (buffer pH 7.4, 298.15 K). Also, the ΔGsolv0 is -14.3 kcal/mol in series [3] (1-octanol, 298.15 K); -13.8 kcal/mol in series [3] (buffer pH 2.0, 298.15 K); -14.2 kcal/mol in series [3] (buffer pH 7.4, 298.15 K). For the same molecule, the ΔHsolv0 is -24.78 kcal/mol in series [3] (1-octanol, 298.15 K); -28.66 kcal/mol in series [3] (buffer pH 2.0, 298.15 K); -26.05 kcal/mol in series [3] (buffer pH 7.4, 298.15 K). Further, the ΔSsolv0 in series [3] (1-octanol, 298.15 K) was −147.0 J·K^−1·mol^−1; in series [3] (buffer pH 2.0, 298.15 K), −208.6 J·K^−1·mol^−1; in series [3] (buffer pH 7.4, 298.15 K), −165.6 J·K^−1·mol^−1.
